Test results taken from ChEMBL document CHEMBL1149774, “Synthesis of N-(5,7-diamino-3-phenyl-quinoxalin-2-yl)-3,4,5-substituted anilines and N-[4[(5,7-diamino-3-phenylquinoxalin-2-yl)amino]benzoyl]-l-glutamic acid diethyl ester: evaluation of in vitro anti-cancer and anti-folate activities” (Eur J Med Chem, 2008).
Activity calls are given as the source filed them. The rule behind the calls is not given here.

Legend:
[1] = biological target: Thymidylate synthase (Escherichia coli) (UniProt C3SWJ7); assay: Inhibition of Escherichia coli thymidylate synthase at 10 uM
HCC 2998 = assay: Growth inhibition of human HCC2998 cells after 48 hrs by SRB staining method; type: functional; conditions: HCC 2998, 48 h; for TGI: read-out: pTGI (converted)
Thymidylate synthase [2] = biological target: Thymidylate synthase (Escherichia coli, UniProt C3SWJ7)
Thymidylate synthase [3] = biological target: Thymidylate synthase (Homo sapiens, UniProt P04818); assay: Inhibition of human thymidylate synthase at 10 uM
Sequence of Thymidylate synthase (Homo sapiens, UniProt P04818) (P04818 2-313 limits assumed): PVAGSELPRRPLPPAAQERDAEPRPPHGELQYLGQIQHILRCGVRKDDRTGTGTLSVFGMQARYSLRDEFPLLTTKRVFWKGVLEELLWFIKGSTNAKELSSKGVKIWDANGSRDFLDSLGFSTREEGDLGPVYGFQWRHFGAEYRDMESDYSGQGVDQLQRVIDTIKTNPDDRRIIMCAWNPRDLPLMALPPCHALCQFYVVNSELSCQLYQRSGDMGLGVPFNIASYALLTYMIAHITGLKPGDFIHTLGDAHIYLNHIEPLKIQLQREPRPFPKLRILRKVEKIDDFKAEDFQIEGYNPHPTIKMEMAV

Sequence of Thymidylate synthase (Escherichia coli, UniProt C3SWJ7) (C3SWJ7 whole entry): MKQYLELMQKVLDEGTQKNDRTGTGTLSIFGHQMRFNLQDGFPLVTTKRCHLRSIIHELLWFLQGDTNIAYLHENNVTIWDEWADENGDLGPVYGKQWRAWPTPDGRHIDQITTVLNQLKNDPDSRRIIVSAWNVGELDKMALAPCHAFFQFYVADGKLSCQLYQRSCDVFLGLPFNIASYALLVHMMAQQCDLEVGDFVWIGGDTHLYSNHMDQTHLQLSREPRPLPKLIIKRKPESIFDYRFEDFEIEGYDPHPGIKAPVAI
Sequence of Thymidylate synthase (Escherichia coli) (C3SWJ7 1-264): as the sequence (C3SWJ7 whole entry) above

| Compound | Activity [1] | GI50 (HCC 2998) | LC50 (HCC 2998) | TGI (HCC 2998) | Ki (Thymidylate synthase [2]) | Activity (Thymidylate synthase [3]) |
| --- | --- | --- | --- | --- | --- | --- |
| CCOC(=O)CCC(NC(=O)c1ccc(Nc2nc3cc(N)cc(N)c3nc2-c2ccccc2)cc1)C(=O)OCC (stereo not given) | inactive | – | – | – | – | – |
| COc1ccc(Nc2nc3cc(N)cc(N)c3nc2-c2ccccc2)cc1 | – | 28.2 µM | > 100 µM | > 100 µM | – | – |
| Nc1cc(N)c2nc(-c3ccccc3)c(Nc3ccc(F)cc3)nc2c1 | – | – | – | – | 70 µM | inactive |
| COc1ccc(Nc2nc3cc(N)cc(N)c3nc2-c2ccccc2)cc1OC | inactive | 18.2 µM | 85.1 µM | 39.8 µM | – | inactive |
| COc1cc(Nc2nc3cc(N)cc(N)c3nc2-c2ccccc2)cc(OC)c1 | – | 24.5 µM | > 100 µM | > 100 µM | – | – |
| Nc1cc(N)c2nc(-c3ccccc3)c(Nc3ccc(Cl)c(Cl)c3)nc2c1 | – | – | – | – | 3 µM | – |
